Assay results taken from ChEMBL document CHEMBL1154635, “Mitoxantrone analogues as ligands for a stem-loop structure of tau pre-mRNA” (J Med Chem, 2009).

Tests used:
Nucleic Acid [1] = assay: Displacement of fluorescent pyrene-neomycin conjugate from tau stem-loop RNA; assay type: nucleic-acid assay
Nucleic Acid [2] = assay: Binding affinity to tau stem-loop RNA assessed as inhibition of RNA stem-loop unfolding; assay type: nucleic-acid assay

EC50 (Nucleic Acid [1]) [µM]	IC50 (Nucleic Acid [2]) [µM]	Compound
1.2	0.34	O=C1c2c(NCCNCCO)ccc(NCCNCCO)c2C(=O)c2c(NCCNCCO)ccc(NCCNCCO)c21
> 100	> 100	Nc1ccc(N)c2c1C(=O)c1c(O)ccc(O)c1C2=O
0.13	0.13	NCCNCCNCCNc1ccc(NCCNCCNCCN)c2c1C(=O)c1c(O)ccc(O)c1C2=O
12	2.4	CC(C)(C)OC(=O)NCCNCCNc1ccc(NCCNCCO)c2c1C(=O)c1c(O)ccc(O)c1C2=O
0.16	0.13	NCCNCCNc1ccc(NCCNCCN)c2c1C(=O)c1c(O)ccc(O)c1C2=O
29	5.8	Nc1ccc(NCCNCCO)c2c1C(=O)c1c(O)ccc(O)c1C2=O
4.4	1.5	O=C1c2c(O)ccc(NCCNCCO)c2C(=O)c2c(NCCNCCO)ccc(O)c21
0.31	0.18	NCCNCCNc1ccc(NCCNCCO)c2c1C(=O)c1c(O)ccc(O)c1C2=O
14	5.7	O=C1c2c(O)ccc(O)c2C(=O)c2c(NCCOCCO)ccc(NCCNCCO)c21
0.8	0.42	O=C1c2c(O)ccc(NCCNCCO)c2C(=O)c2c(NCCNCCO)ccc(NCCNCCO)c21
16	2.3	O=C1c2c(F)ccc(F)c2C(=O)c2c(NCCNCCO)ccc(NCCNCCO)c21
0.38	0.23	NCCNCCNCCNc1ccc(NCCNCCO)c2c1C(=O)c1c(O)ccc(O)c1C2=O
75	5.7	O=C1c2c(O)ccc(O)c2C(=O)c2c(NCCNCCO)ccc(F)c21
> 100	> 100	Nc1ccc(N)c2c1C(=O)c1c(N)ccc(N)c1C2=O
> 100	> 100	Nc1ccc(O)c2c1C(=O)c1c(N)ccc(O)c1C2=O

Compound	EC50 (Nucleic Acid [1]) [µM]	IC50 (Nucleic Acid [2]) [µM]
O=C1c2c(O)ccc(O)c2C(=O)c2c(NCCNCCO)ccc(NCCNCCO)c21 [MITOXANTRONE]	0.89	0.46
